Assay [1] in a line: Inhibition of amyloid beta (1 to 42) aggregation […] after 48 hrs by fluorescence imaging.
Assay [2] is described as follows: Binding affinity to amyloid beta (1 to 42) oligomers by change in fluorescence at 100 uM after 10 mins.
Assay [3] can be described thus: Binding affinity to amyloid beta (1 to 42) fibrils by change in fluorescence at 100 uM after 10 mins.
Assay [4] is described as follows: Binding affinity to amyloid beta (1 to 42) oligomers by change in fluorescence at 100 uM after 2 mins.
Assay [5] in a line: Binding affinity to amyloid beta (1 to 42) fibrils by change in fluorescence at 100 uM after 2 mins.
Assay [6] can be described thus: Binding affinity to amyloid beta (1 to 42) fibrils by fluorescence quenching after 30 mins.
A short description of assay [7]: Binding affinity to amyloid beta (1 to 42) oligomers by fluorescence quenching after 30 mins.

Calls of active or inactive are those of the source.

In the case of `N[C@@H](Cc1c[nH]c2ccccc12)C(=O)O`, in assay [1], the inhibition result was “inactive”. The outcome in assay [2] and in assay [3] was Active.

On to `COc1ccc2[nH]cc(CCNC(C)=O)c2c1`, for which, in assay [1], the inhibition entry is “inactive”. Also, the outcome in assay [2] and in assay [3] was Active.

As to `O=S(=O)(O)c1cccc2c(-c3ccc(Nc4ccccc4)c4c(S(=O)(=O)O)cccc34)ccc(Nc3ccccc3)c12`, the result in assay [4] and in assay [5] was Active.

As for `Cc1ccc2[nH]c(C(=O)O)cc2c1`, in assay [1], the inhibition result was “inactive”. Also, the outcome in assay [2] and in assay [3] was Active.

In the case of `COc1ccc(/C=C/C(=O)c2ccccc2)cc1`, the outcome in assay [2] and in assay [3] was inactive.

With `O=S(=O)(O)c1cc(S(=O)(=O)O)c2c(/N=N/c3ccccc3)c(O)ccc2c1`, the result in assay [2] and in assay [3] was inactive.

For `CC(C)OC(=O)C(C)(C)Oc1ccc(C(=O)c2ccc(Cl)cc2)cc1`, the result in assay [2] and in assay [3] was inactive.

For the compound `CC(Cc1ccc(O)c(O)c1)C(C)Cc1ccc(O)c(O)c1` (configuration not stated), the result in assay [2] and in assay [3] was inactive.

As for `C=C1c2c(Cl)ccc(O)c2C(=O)C2=C(O)[C@]3(O)C(=O)C(C(N)=O)=C(O)[C@@H](N(C)C)[C@@H]3[C@@H](O)[C@H]12.O=C(O)c1cc(S(=O)(=O)O)ccc1O`, the outcome in assay [2] and in assay [3] was Active.

`OCCN1CCN(CCCN2c3ccccc3Sc3ccc(Cl)cc32)CC1`: the result in assay [2] and in assay [3] was inactive.

In the case of `Oc1ccc(/C=C/c2cc(O)cc(O)c2)cc1`, the outcome in assay [2] and in assay [3] was Active.

As for `COc1cccc(C=O)c1O`, the result in assay [2] and in assay [3] was inactive.

As to `COc1cc(/C=C/C(=O)NCc2cccc(CNC(=O)/C=C/c3ccc(O)c(OC)c3)c2)ccc1O`, the result in assay [2] and in assay [3] was inactive.

With `CN(C)[C@@H]1C(O)=C(C(N)=O)C(=O)[C@@]2(O)C(O)=C3C(=O)c4c(O)cccc4[C@@](C)(O)[C@H]3C[C@@H]12`, the outcome in assay [2] and in assay [3] was inactive.

With `COc1cc(/C=C/C(=O)CC(=O)/C=C/c2ccc(O)c(OC)c2)ccc1O`, the outcome in assay [2] and in assay [3] was inactive.

Consider `O=c1oc2c(O)c(O)cc3c(=O)oc4c(O)c(O)cc1c4c23`, for which the result in assay [2] and in assay [3] was inactive.

With `Nc1ccc2nc3ccc(N)cc3[s+]c2c1`, the result in assay [2] and in assay [3] was inactive.

Regarding `COc1ccc(/C=C/C(=O)c2cccc(N)c2)cc1OC`, the outcome in assay [2] and in assay [3] was inactive.

For the compound `c1ccc2[nH]ccc2c1`, the inhibition entry in assay [1] was “inactive”. Further, the result in assay [2], in assay [3] and in assay [7] was Active. In addition, in assay [6], the outcome was inactive.

For `COc1cc(-c2ccc(/N=N/c3ccc4c(S(=O)(=O)O)cc(S(=O)(=O)O)c(N)c4c3O)c(OC)c2)ccc1/N=N/c1ccc2c(S(=O)(=O)O)cc(S(=O)(=O)O)c(N)c2c1O`, the result in assay [2] and in assay [3] was inactive.

Consider `O=C1C(Cl)=C(Cl)C(=O)C(Cl)=C1Cl`, for which the outcome in assay [2] and in assay [3] was inactive.

For the compound `Oc1ccc(Cc2ccc(O)cc2)cc1`, the outcome in assay [2] and in assay [3] was inactive.

For `CN(C)c1ccc2nc3ccc(=[N+](C)C)cc-3sc2c1`, the result in assay [2] and in assay [3] was inactive.

For the compound `COc1ccc(/C=C/c2cccc(/C=C/c3ccc(OC)c(OC)c3)c2)cc1OC`, the outcome in assay [2] and in assay [3] was Active.

As for `CN(C)c1ccc2nc3ccc(N)cc3[s+]c2c1`, the outcome in assay [2] and in assay [3] was inactive.

Turning to `COc1cc(/C=C/C(=O)c2cccc(N)c2)ccc1O`, the outcome in assay [2] and in assay [3] was inactive.

As for `COc1cc(/C=C/C(=O)c2ccccc2)ccc1O`, the result in assay [2] and in assay [3] was inactive.

`Nc1c2ccccc2nc2ccccc12`: the outcome in assay [2] and in assay [3] was Active.

`COc1cc(/C=C/C(=O)NCCCCCCCCNC(=O)/C=C/c2ccc(O)c(OC)c2)ccc1O`: the outcome in assay [2] and in assay [3] was inactive.

As to `Cc1ccc2ccc3ccc(C)nc3c2n1`, the outcome in assay [2] and in assay [3] was Active.

With `O=C(O)c1ccccc1O`, the outcome in assay [2] and in assay [3] was Active.

As for `O=C(/C=C/c1ccccc1)c1ccccc1`, the result in assay [2] and in assay [3] was inactive.

For the compound `COc1ccc(/C=C/C(=O)c2ccccc2)cc1OC`, the outcome in assay [2] and in assay [3] was inactive.

For the origin of these results see ChEMBL document CHEMBL1156243.
